Measured values from PubChem BioAssay (NCI).
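Exposure lasted 48 hours, with cells grown in 96-well plates and compounds tested at five concentrations. At the TGI there is no net growth.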

Tests used:
Assay in all cases: inhibition of tumour cell growth, NCI panel, 48 h
UACC-257 melanoma = test system: UACC-257 melanoma
CCRF-CEM leukemia = test system: CCRF-CEM leukemia
HT29 colon = test system: HT29 colon
MALME-3M melanoma = test system: MALME-3M melanoma
HS 578T breast = test system: HS 578T breast
OVCAR-4 ovarian = test system: OVCAR-4 ovarian
RPMI-8226 leukemia = test system: RPMI-8226 leukemia
A498 renal = test system: A498 renal
SF-539 CNS = test system: SF-539 CNS
TK-10 renal = test system: TK-10 renal
MDA-MB-231 breast = test system: MDA-MB-231 breast
SK-OV-3 ovarian = test system: SK-OV-3 ovarian
SK-MEL-5 melanoma = test system: SK-MEL-5 melanoma
NCI-H23 lung = test system: NCI-H23 lung
NCI/ADR-RES ovarian = test system: NCI/ADR-RES ovarian
CAKI-1 renal = test system: CAKI-1 renal
SF-268 CNS = test system: SF-268 CNS
HOP-92 NSCLC = test system: HOP-92 NSCLC
PC-3 prostate = test system: PC-3 prostate
OVCAR-5 ovarian = test system: OVCAR-5 ovarian
UACC-62 melanoma = test system: UACC-62 melanoma
COLO 205 colon = test system: COLO 205 colon
HCT-15 colon = test system: HCT-15 colon
OVCAR-8 ovarian = test system: OVCAR-8 ovarian
LOX IMVI melanoma = test system: LOX IMVI melanoma
MDA-N = test system: MDA-N
NCI-H522 lung = test system: NCI-H522 lung
A549 NSCLC = test system: A549 NSCLC
SR leukemia = test system: SR leukemia
U251 CNS = test system: U251 CNS
SNB-19 CNS = test system: SNB-19 CNS
SN12C renal = test system: SN12C renal
NCI-H460 lung = test system: NCI-H460 lung
HL-60(TB) leukemia = test system: HL-60(TB) leukemia
EKVX NSCLC = test system: EKVX NSCLC
786-0 renal = test system: 786-0 renal
SK-MEL-2 melanoma = test system: SK-MEL-2 melanoma
SW-620 colon = test system: SW-620 colon
M14 melanoma = test system: M14 melanoma
T-47D breast = test system: T-47D breast
NCI-H226 lung = test system: NCI-H226 lung
HCT-116 colon = test system: HCT-116 colon
MCF7 breast = test system: MCF7 breast
DU-145 prostate = test system: DU-145 prostate
RXF 393 renal = test system: RXF 393 renal
MDA-MB-435 = test system: MDA-MB-435
HOP-62 NSCLC = test system: HOP-62 NSCLC
SK-MEL-28 melanoma = test system: SK-MEL-28 melanoma
SNB-75 CNS = test system: SNB-75 CNS
K-562 leukemia = test system: K-562 leukemia
ACHN renal = test system: ACHN renal
KM12 colon = test system: KM12 colon
HCC-2998 colon = test system: HCC-2998 colon
IGROV1 ovarian = test system: IGROV1 ovarian
SF-295 CNS = test system: SF-295 CNS
OVCAR-3 ovarian = test system: OVCAR-3 ovarian

Measured: TGI

CC1(c2ccccc2)N=C(C(N)=O)c2[nH]cnc2N1 (stereo unspecified)
> 100 µM: all assays above
